Measured values: US12037324B2, “Biarylmethyl heterocycles” (Université de Montréal, priority 2016, dated 2024)

What was measured:
AGTR1 [1] = molecular target: T1, AGTR1 (Homo sapiens, UniProt P30556); assay: DiscoveRx β-arrestin2 recruitment assay (enzyme complementation, Pathunter CHO-K1 AGTR1 β-arrestin cell line); assay type: cell-based; details: DiscoveRx β-arrestin2 recruitment; for DiscoveRx β-arrestin2 Ymax (%): maximal response
T1 construct: host or cells: Pathunter CHO-K1 AGTR1 β-arrestin cell line (CHO-K1)
T1 sequence (P30556 1-359): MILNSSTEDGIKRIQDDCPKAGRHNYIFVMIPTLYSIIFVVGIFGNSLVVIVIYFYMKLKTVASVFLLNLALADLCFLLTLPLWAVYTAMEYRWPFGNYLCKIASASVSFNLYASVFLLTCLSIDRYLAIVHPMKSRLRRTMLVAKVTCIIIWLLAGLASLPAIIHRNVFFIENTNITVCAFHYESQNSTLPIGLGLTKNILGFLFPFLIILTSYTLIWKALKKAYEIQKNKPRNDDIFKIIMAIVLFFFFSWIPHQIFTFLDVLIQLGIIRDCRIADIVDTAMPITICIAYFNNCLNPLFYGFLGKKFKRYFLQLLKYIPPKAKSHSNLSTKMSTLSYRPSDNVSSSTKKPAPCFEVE
Method in brief: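 CHO-K1 cells expressing AGTR1 with β-arrestin2 enzyme-complementation reporter, plated 14-16 h ahead in 1% serum medium, then exposed to compounds for 90 min at 37° C. Chemiluminescence read after 1 h detection. EC50 (agonist) or IC50 (antagonist) from 4-parameter logistic fit; activity as percentage of All maximal effect.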

AGTR1 [2] = molecular target: T1, AGTR1; assay: DiscoveRx IP1 accumulation assay (HTRF), agonist mode, Pathunter CHO-K1 AGTR1 β-arrestin cell line; assay type: cell-based; details: for EC50: read-out: IP-1 EC50
Method in brief: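 Agonist mode in CHO-K1 AGTR1 β-arrestin cells plated 14-16 h before; compounds at varying concentrations for 90 min at 37° C, IP1 accumulation read by HTRF (D2-conjugate and anti-IP1 cryptate, 20 min room temperature). EC50 from 4-parameter logistic fit; activity given as percentage of maximal AII effect.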

hAT1R [3] = molecular target: T2, hAT1R (Homo sapiens, UniProt P30556); assay: cell-based
T2 sequence (P30556 1-359): T1 sequence (P30556 1-359)

hAT1R [4] = molecular target: T2, hAT1R; assay: cell-based; details: agonist mode; for EC50: read-out: BRET P63 EC50
hAT1R [5] = molecular target: T2, hAT1R; assay: BRET β-arrestin2 biosensor assay, higher receptor expression (hAT1R 5 ng/well), HEK293 cells; assay type: cell-based
[6] = Low AT1R Expression, read-out: BRET β-Arrestin2 Low AT1R Expression EC50
[7] = section of the 42nd table ending at r951, example numbering restarts after the DiscoveRx section, read-out: β-arrestin2 EC50

SMILES	EC50 (AGTR1 [1]) [nM]	DiscoveRx β-arrestin2 Ymax (%) (AGTR1 [1])	IP-1 Ymax (%) (AGTR1 [2])	EC50 (AGTR1 [2]) [nM]	BRET β-Arrestin2 Low AT1R Expression Ymax (%) (hAT1R [3]; Low AT1R Expression)	EC50 (hAT1R [3]; [6]) [nM]	BRET P63 Ymax (hAT1R [4]) [%]	EC50 (hAT1R [4]) [nM]	EC50 (hAT1R [3]; [7]) [nM]	BRET β-Arrestin2 High AT1R Expression Ymax (%) (hAT1R [5])	EC50 (hAT1R [5]; High AT1R Expression) [nM]
CCCCC1=NC2(CCOC2)C(=O)N1Cc1ccc(-c2cc(-c3ccccc3O)ccc2-c2nnn[nH]2)cc1 (single isomer, unassigned) [Example 150]	13.7	45.6	17.2	20.7	65.7	76.9	14.6	105			
CCCCC1=NC2(CCOC2)C(=O)N1Cc1ccc(-c2cc(-c3ccccc3O)ccc2-c2nnn[nH]2)cc1 (single isomer, unassigned) [Example 151]	76.4	44.3	14.0	607	42.5	419	11.0	174			
CCCCC1=NC2(CCOC2)C(=O)N1Cc1ccc(-c2cc(-c3cccc(C)c3)ccc2-c2nnn[nH]2)cc1 (single isomer, unassigned) [Example 152]	11.6	28.6	7.0	30.7				> 100000	21.8		
CCCCC1=NC2(CCOC2)C(=O)N1Cc1ccc(-c2cc(-c3cccc(C)c3)ccc2-c2nnn[nH]2)cc1 (single isomer, unassigned) [Example 153]	28.7	19.6	6.0	229				> 100000	54.1		
CCCCC1=NC2(CCOC2)C(=O)N1Cc1ccc(-c2cc(-c3cc(C)ccn3)ccc2-c2nnn[nH]2)cc1 (single isomer, unassigned) [Example 154]	14.1	48.7	14.4	40.6			25.3	57.7	63.9		
CCCC1=NC2(CCOC2)C(=O)N1Cc1ccc(-c2cc(-c3cccc(C)c3)ccc2-c2nnn[nH]2)cc1 (single isomer, unassigned) [Example 159]	51.4	44.0	11.3	78.1			11.5	79.3	40.3		
CCCC1=NC2(CCOC2)C(=O)N1Cc1ccc(-c2cc(-c3ccccc3O)ccc2-c2nnn[nH]2)cc1 (single isomer, unassigned) [Example 160]	87.8	50.2	15.8	132			18.6	79.7	98.5		
CCCC1=NC2(CCOC2)C(=O)N1Cc1ccc(-c2cc(-c3ccccc3F)ccc2-c2nnn[nH]2)cc1 (single isomer, unassigned) [Example 161]	88.5	40.7	14.2	203			10.9	49.6	46.3		
CC1=NC2(CCOC2)C(=O)N1Cc1ccc(-c2cc(-c3ccccc3)ccc2-c2nn[nH]n2)cc1 (single isomer, unassigned) [Example 174, 3-((6′-(2H-tetrazol-5-yl)-[1,1′:3′,1″-terphenyl]-4-yl)methyl)-2-methyl-7-oxa-1,3-diazaspiro[4.4]non-1-en-4-one]							10.3	770	634		
CCc1nc2c(C)cc(C)nc2n1Cc1ccc(-c2cc(-c3ncc(C)s3)ccc2-c2nn[nH]n2)cc1 [Example 68]					91.1	15.3	41.7	15			
CCc1nc2c(C)cc(C)nc2n1Cc1ccc(-c2cc(N3CCC4(CCOC4)C3)ccc2-c2nn[nH]n2)cc1 (centres unmarked) [Example 92]			51.1	1400	66.5	309	17.8	278			
CCCCC1=NC2(CCCC2)C(=O)N1Cc1ccc(-c2cc(-c3cccc(F)c3)ccc2-c2nn[nH]n2)cc1 [Example 127]					29.5	17.3		> 10000		82.7	23.6
CC1=NC2(CCOCC2)C(=O)N1Cc1ccc(-c2cc(-c3cc(C)ccn3)ccc2-c2nn[nH]n2)cc1 [Example 173, 2-methyl-3-((5′-(4-methylpyridin-2-yl)-2′-(2H-tetrazol-5-yl)-[1,1′-biphenyl]-4-yl)methyl)-8-oxa-1,3-diazaspiro[4.5]dec-1-en-4-one]							19.3	79.1	80.4		
CCc1nc2c(C)cc(C)nc2n1Cc1ccc(-c2cc(-n3cncc3C)ccc2-c2nnn[nH]2)cc1 [Example 220]							18.2	36.8	36		
CCc1nc2c(C)cc(C)nc2n1Cc1ccc(-c2cc(-n3cnc(C)c3)ccc2-c2nnn[nH]2)cc1 [Example 221]							5.4	28	159		
CCc1nc2c(C)cc(C)nc2n1Cc1ccc(-c2cc(-n3cc(C)c(C)n3)ccc2-c2nnn[nH]2)cc1 [Example 223]							9.8	5.9	9.2		
CCc1nc2c(C)cc(C)nc2n1Cc1ccc(-c2cc(-n3cc(C(F)(F)F)cn3)ccc2-c2nnn[nH]2)cc1 [Example 224]							20.8	11.3	7.6		
CCc1nc2c(C)cc(C)nc2n1Cc1ccc(-c2cc(-c3cn(CC(F)F)nn3)ccc2-c2nnn[nH]2)cc1 [Example 242]							45.6	41.6	28.2		
CCc1nc2c(C)cc(C)nc2n1Cc1ccc(-c2cc(Oc3cccc(F)n3)ccc2-c2nn[nH]n2)cc1 [Example 256]							30.5	43	34.5		
CCOc1nc2cccc(C(=O)O)c2n1Cc1ccc(-c2cc(-c3ccc(C)cn3)ccc2-c2noc(=O)[nH]2)cc1 [Example 300, 2-ethoxy-1-((5′-(5-methylpyridin-2-yl)-2′-(5-oxo-4,5-dihydro-1,2,4-oxadiazol-3-yl)-[1,1′-biphenyl]-4-yl)methyl)-1H-benzo[d]imidazole-7-carboxylic acid]							25.1	9	12.8		
CCOc1nc2cccc(C(=O)O)c2n1Cc1ccc(-c2cc(-c3cc(OC)ccn3)ccc2-c2noc(=O)[nH]2)cc1 [Example 301]							31.2	13.6	14.8		
CCOc1nc2cccc(C(=O)O)c2n1Cc1ccc(-c2cc(-c3cccc(C)n3)ccc2-c2noc(=O)[nH]2)cc1 [Example 304]							17.3	29.7	38.3		
CCOc1nc2cccc(C(=O)O)c2n1Cc1ccc(-c2cc(-c3cnccn3)ccc2-c2noc(=O)[nH]2)cc1 [Example 307]								> 10000	962		
CCOc1nc2cccc(C(=O)O)c2n1Cc1ccc(-c2cc(N3CCC[C@@H](C)C3)ccc2-c2noc(=O)[nH]2)cc1 [Example 325]								> 10000	201		
CCOc1nc2cccc(C(=O)O)c2n1Cc1ccc(-c2cc(-n3cc(C)cn3)ccc2-c2nn[nH]n2)cc1 [Example 340]							17.3	2.9	5.8		
CCOc1nc2cccc(C(=O)O)c2n1Cc1ccc(-c2cc(-n3cc4ccccc4n3)ccc2-c2nn[nH]n2)cc1 [Example 341]							18.8	4.4	12.2		
CCOc1nc2cccc(C(=O)O)c2n1Cc1ccc(-c2cc(-n3ncc4ccccc43)ccc2-c2nn[nH]n2)cc1 [Example 342]							16.5	3.3	3.6		
CCOc1nc2cccc(C(=O)O)c2n1Cc1ccc(-c2cc(OC3CCCCC3)ccc2-c2nn[nH]n2)cc1 [Example 343]							15.3	26.7	26.2		
CCOc1nc2cccc(C(=O)O)c2n1Cc1ccc(-c2cc(-n3cc(C(C)C)nn3)ccc2-c2nn[nH]n2)cc1 [Example 344]							10.4	16.8	767		
CCCCc1nc(Cl)c(C(=O)O)n1Cc1ccc(-c2cc(Oc3cccnc3)ccc2-c2nn[nH]n2)cc1 [Example 428]								> 10000	122		
